In a melting point compilation (Tetko et al.; mined from patent text by program, amines drawn as free bases though some values may be those of a salt):

Row | melting point | Compound
1 | 202 to 203 °C | CN(c1cc(OC(F)(F)F)cc2cc(C3=NCC(CC(N)=O)S3)[nH]c12)S(=O)(=O)c1cccs1 (stereo not drawn)
2 | 228 to 229 °C | CCOCc1nc2c(N)nc3cc(-c4cccnc4)ccc3c2n1Cc1ccc(CNS(C)(=O)=O)cc1
3 | 96 to 99 °C | COC(=O)C1=Cc2cc(Br)ccc2N(CC2(C)OCCO2)CC1
4 | 104 to 106 °C | C=CCN1CCc2nc(NCC)nc(-c3ccc(Cl)cc3)c2C1
5 | 83 to 85 °C | C=CCC1(Cc2ncn(C(c3ccccc3)(c3ccccc3)c3ccccc3)c2C)CCc2c(C)c3ccccc3n2C1=O (stereo not drawn)
6 | 153 to 155 °C | CC(=O)N[C@H]1CCCc2ccccc21
7 | 274 to 276 °C | Cc1ccccc1Cn1c(=O)[nH]c2cc(Cl)cc(Cl)c2c1=O
8 | 176 °C | Cc1ccc2c(c1)CCn1ccnc1C2=C1CCN(CCc2ccc(O)cc2)CC1
9 | 108 to 109 °C | OC1(c2cccn2Cc2ccccc2F)CCN(CCc2ccc(Cl)cc2)CC1
10 | 148 °C | COc1ccc2c(c1)CNCC(=O)N2
11 | 173 to 176 °C | Cn1cc(C(=O)CCl)cc1C(=O)c1ccc([N+](=O)[O-])cc1
12 | 38 to 39 °C | CCOC(=O)C1(C(=O)OCC)SCC(N(C)C)CS1
13 | 53 to 55.5 °C | COC(=O)c1ccc(OCCN)cc1
14 | 71 to 73 °C | CC(C)Cc1nc[nH]n1
15 | 110 to 114 °C | C[C@@H]1Cc2ccsc2[C@H](C)N1CCNC(=O)c1ccc(F)cc1 (relative stereo)
16 | 55 to 60 °C | FC(F)(F)c1cccc2c1SSSSS2
17 | 270 to 271 °C | COc1ccc2[nH]cc(-c3cc4c(-c5c(C)noc5C)ccnc4[nH]3)c2c1
18 | 136 °C | CCCN(CC1CC1)c1nc(C)nc2c1c(C)c(C)n2-c1c(C)cc(C)c2nsnc12
19 | 142 to 144 °C | O=C(O)Cc1ccsc1Cc1nc2c(F)c(F)cc(F)c2s1
20 | 169 to 170 °C | O=c1cc(-c2cccc(F)c2)oc(N2CCOCC2)c1
21 | 130 to 140 °C | c1c(N2CCNCC2)nc(N2CCC3(CC2)OCCO3)nc1N1CCC2(CC1)OCCO2
22 | 91 to 93 °C | NCc1cn2ccccc2n1
23 | 132 to 133 °C | COC(=O)c1cc(OC)c(NC(=O)OCc2ccccc2)c(OC)c1

Row | melting point | Compound
24 | 198 to 201 °C | NNc1nnc(Cl)cc1C(=O)O
25 | 189 to 191 °C | COC(=O)C[C@@H](N)c1ccc(NC(=O)Cc2ccc(NC(=O)Nc3ccccc3C)c(OC)c2)cc1
26 | 249 to 252 °C | Cc1n[nH]c2cc(-c3nn(C(C)c4oc5ccccc5c(=O)c4-c4ccccc4)c4ncnc(N)c34)ccc12 (stereo not drawn)
27 | 189 to 190 °C | CCC(C(N)=O)c1c(C(O)(C(F)(F)F)C(F)(F)F)ccc2ccccc12 (stereo not drawn)
28 | 134 to 137 °C | CC(=NO)c1ccc2c(c1)N(C(=O)OC(C)(C)C)CCC2
29 | 160 to 163 °C | CCCc1c(OCCCCCOc2ccc3cc(OCC(=O)O)ccc3c2CCC(=O)O)ccc2c1OCCC2=O
30 | 58 to 60 °C | COCC1CN(c2ccc(C3CC3)cc2)C(=O)O1 (racemic)
31 | 142 to 144 °C | c1ccc(N2CCN3C(NN4CCOCC4)=Nc4ccccc4N3CC2)cc1
32 | 128 to 133 °C | CN(C)C=C(C(=O)c1ccccc1)c1ccccc1
33 | 233 to 235 °C | COc1cc2c(cc1Br)C1=C(c3cccs3)C3CSCCN(C(C)(C)C)C(=O)C3N1CC2 (stereo not drawn)
34 | 181 to 184 °C | NC(=O)N(O)CCNC(=O)c1cc2c(Cl)cccc2s1
35 | 67 to 68 °C | Oc1cccc2c1CCC=C2
36 | 195 to 197 °C | Cn1ncc(C(=O)O)c1Cl
37 | 205 to 215 °C | COc1cc2c(cc1C(F)(F)F)N(C(=O)Nc1ccc(-c3ccccn3)s1)CC2
38 | 217 to 218 °C | CC(C)(C)C(O)Cn1c(=O)c(=NNc2ccccc2)c(=O)n(-c2ccccc2F)c2ccccc21 (stereo not drawn)
39 | 209 to 210 °C | Nc1nc(Br)nc2c1ncn2C1OC(CO)C(O)C1F (stereo not drawn)
40 | 228 to 245 °C | COC(=O)c1cccc(Nc2nc(-c3cccnc3)nc3ccccc23)c1
41 | 116 to 118 °C | O=C(O)CCCCCCCCCCCCC(=O)ON1C(=O)CCC1=O
42 | 158 °C | COc1ccnc2c1C(=O)c1c(-c3ccccc3NC(=O)C(F)(F)F)ccnc1C2=O
43 | 155 to 157 °C | COC1=CC=CC(OCCCN2CCN(c3n[nH]c4ccccc34)CC2)(C(C)=O)C1 (stereo not drawn)
44 | 166 °C | OCC1NCc2ccsc2-n2cccc21 (stereo not drawn)
45 | 167 to 175 °C | O=C(NCCNC1CCC(c2ccc3[nH]c(=O)oc3c2)CC1)c1ccccc1 (stereo not drawn)
46 | 259 to 261 °C | COc1cc(Nc2c(C#N)cnc3cc(-c4csc(C=O)c4)sc23)c(Cl)cc1Cl

Row | melting point | Compound
47 | 98 to 102 °C | COC(=O)C=C(C)c1ccc(CCC(C)(C)NCC(O)c2ccccc2)cc1 (stereo not drawn)
48 | 124 °C | CCCCCC(=O)NC[C@H]1CNC(=O)O1
49 | 154 to 155 °C | Cc1ccc(N2CCN(Cc3ccc4ccc(=O)oc4c3)CC2)cc1
50 | 66 to 67 °C | N#CC1=CCC(c2ccccc2)c2ccccc21 (stereo not drawn)
51 | 128 °C | OC[C@@H]1CCc2ccc3ncccc3c2O1
52 | 195 to 196 °C | CSc1ccc(-c2csc3ccc(C(=O)NN)cc23)cc1
53 | 99 to 100 °C | CCCCOc1nc(N)c2nc(OC)n(CCCCNCCOC)c2n1
54 | 227 to 229 °C | CC(=O)Nc1cc(O)ccc1/C=C/c1ccc(O)cc1
55 | 78 to 80 °C | CC(C)(C)c1cc(C2=CCCCCC2)c(O)c(C(C)(C)C)c1
56 | 258 to 260 °C | CC(C)(C)c1cc2c(n1-c1ccc(O)c(C(=O)O)c1)CCc1ccccc1-2
57 | 145 to 146 °C | CCOC(=O)Nc1ccc(N2CCC(=O)CC2)cc1
58 | 134 to 135 °C | N#CC(C#N)=CN(N=C(C#N)C#N)c1cccc(F)c1
59 | 84 °C | Cc1ccc(C(Br)C(Br)C(=O)c2ccccc2)cc1 (stereo not drawn)
60 | 113 to 114 °C | COc1cccc(CS[C@H]2C[C@@H](C(N)=O)N(C)C2)c1
61 | 111 to 115 °C | COC(=O)CSC(c1ccccc1)(c1ccccc1)c1ccccc1
62 | 231 to 233 °C | CC1=NN(C)C(=O)C1C(=O)Nc1ccccc1 (stereo not drawn)
63 | 195 °C | COc1ccc(C(=O)n2c3c(c4ccccc42)CC(C(=O)O)CC3)cc1 (stereo not drawn)
64 | 91 to 92 °C | CCOC(=O)CN1CCN(S(=O)(=O)c2ccc(N3CCC(NC[C@H](O)c4ccc(O)c(NS(C)(=O)=O)c4)CC3)cc2)CC1
65 | 209 to 211 °C | CC(C(=O)O)n1nnc2ccc(Oc3nn(C)c(C(F)(F)F)c3Cl)cc21 (stereo not drawn)
66 | 110 to 113 °C | Cc1cccc([C@H]2[C@H](C(=O)Nc3ccc(F)c(F)c3)C2(C)C)c1 (relative stereo)
67 | 181 to 183 °C | COCCC1(C(=O)N[C@@H](Cc2ccc(-c3c(C(F)(F)F)cc(C)n(C)c3=O)cc2)C(=O)O)CCCC1
68 | 243 to 244 °C | CN(C)C(=O)c1cc(O)c2nc(C(F)(F)F)n(C)c2c1
69 | > 250 °C | CCOC(=O)CC[C@H](NC(=O)c1ccc(CCc2cnc3nc(NC(=O)C(C)(C)C)nc(O)c3c2)cc1)C(=O)OCC

Row | Compound | melting point
70 | CCNC(=O)c1ccc(C=C2CC3CCC(C2)N3CCC(C(=O)N(C)C)(c2ccccc2)c2ccccc2)cc1 | 137 to 139 °C
71 | CN1Cc2c(-c3noc(CCl)n3)ncn2-c2cccc(C(F)(F)F)c2C1=O | 180 to 184 °C
72 | CCCCCCN1CCC(C(=O)NCC)(c2ccccc2)CC1 | 92 to 94 °C
73 | Cc1nccc2c1[nH]c1cc(O)ccc12 | 248 °C
